From US20220046923A1, “HERBICIDAL CINNOLINIUM COMPOUNDS” (SYNGENTA CROP PROTECTION AG, priority 2018, published 2022)

Tests used:
Assay in all cases: Post-emergence efficacy, glasshouse spray test
Format in all cases: in vivo
Eleusine indica (ELEIN) = conditions: Eleusine indica, post-emergence, 312 h, evaluated after 13 days, read-out: Control of weed species ELEIN after post-emergence application (100=total damage to plant; 0=no damage to plant); for pest or weed control at 1000 g/ha: application rate 1000 g/Ha; for pest or weed control at 500 g/ha: application rate 500 g/Ha
Protocol: (§1) Seeds of a variety of test species were sown in standard soil in pots. After cultivation for 14 days (post-emergence) under controlled conditions in a glasshouse (at 24/16° C., day/night; 14 hours light; 65% humidity), the plants were sprayed with an aqueous spray solution derived from the dissolution of the technical active ingredient formula (I) in a small amount of acetone and a special solvent and emulsifier mixture referred to as IF50 (11.12% Emulsogen EL360 TM+44.44% N-methylpyrrolidone+44.44% Dowanol DPM glycol ether), to create a 50 g/l solution which was then diluted to required concentration using 0.25% or 1% Empicol ESC70 (Sodium lauryl ether sulphate)+1% ammonium sulphate as diluent. The test plants were then grown in a glasshouse under controlled conditions (at 24/16° C., day/night; 14 hours light; 65% humidity) and watered twice daily. After 13 days the test was evaluated (100=total damage to plant; 0=no damage to plant).
(§2) Ipomoea hederacea (IPOHE), Euphorbia heterophylla (EPHHL), Chenopodium album (CHEAL), Amaranthus palmeri (AMAPA), Lolium perenne (LOLPE), Digitaria sanguinalis (DIGSA), Eleusine indica (ELEIN), Echinochloa crus-galli (ECHCG), Setaria faberi (SETFA)

Lolium perenne (LOLPE) = conditions: Lolium perenne, post-emergence, 312 h, evaluated after 13 days, read-out: Control of weed species LOLPE after post-emergence application (100=total damage to plant; 0=no damage to plant); for pest or weed control at 1000 g/ha: application rate 1000 g/Ha; for pest or weed control at 500 g/ha: application rate 500 g/Ha
Protocol: as §1, §2

[1] = system: Ipomoea hederacea (IPOHE); conditions: Ipomoea hederacea, post-emergence, 312 h, evaluated after 13 days, read-out: Control of weed species IPOHE after post-emergence application (100=total damage to plant; 0=no damage to plant); for pest or weed control at 1000 g/ha: application rate 1000 g/Ha; for pest or weed control at 500 g/ha: application rate 500 g/Ha
Protocol: as §1, §2

[2] = system: Euphorbia heterophylla (EPHHL); conditions: Euphorbia heterophylla, post-emergence, 312 h, evaluated after 13 days, read-out: Control of weed species EPHHL after post-emergence application (100=total damage to plant; 0=no damage to plant); for pest or weed control at 1000 g/ha: application rate 1000 g/Ha; for pest or weed control at 500 g/ha: application rate 500 g/Ha
Protocol: as §1, §2

[3] = system: Amaranthus palmeri (AMAPA); conditions: Amaranthus palmeri, post-emergence, 312 h, evaluated after 13 days, read-out: Control of weed species AMAPA after post-emergence application (100=total damage to plant; 0=no damage to plant); for pest or weed control at 1000 g/ha: application rate 1000 g/Ha; for pest or weed control at 500 g/ha: application rate 500 g/Ha
Protocol: as §1, §2

Setaria faberi (SETFA) = conditions: Setaria faberi, post-emergence, 312 h, evaluated after 13 days, read-out: Control of weed species SETFA after post-emergence application (100=total damage to plant; 0=no damage to plant); for pest or weed control at 1000 g/ha: application rate 1000 g/Ha; for pest or weed control at 500 g/ha: application rate 500 g/Ha
Protocol: as §1, §2

[4] = system: Echinochloa crus-galli (ECHCG); conditions: Echinochloa crus-galli, post-emergence, 312 h, evaluated after 13 days, read-out: Control of weed species ECHCG after post-emergence application (100=total damage to plant; 0=no damage to plant); for pest or weed control at 1000 g/ha: application rate 1000 g/Ha; for pest or weed control at 500 g/ha: application rate 500 g/Ha
Protocol: as §1, §2

[5] = system: Chenopodium album (CHEAL); conditions: Chenopodium album, post-emergence, 312 h, evaluated after 13 days, read-out: Control of weed species CHEAL after post-emergence application (100=total damage to plant; 0=no damage to plant); for pest or weed control at 1000 g/ha: application rate 1000 g/Ha; for pest or weed control at 500 g/ha: application rate 500 g/Ha
Protocol: as §1, §2

[6] = system: Digitaria sanguinalis (DIGSA); conditions: Digitaria sanguinalis, post-emergence, 312 h, evaluated after 13 days, read-out: Control of weed species DIGSA after post-emergence application (100=total damage to plant; 0=no damage to plant); for pest or weed control at 1000 g/ha: application rate 1000 g/Ha; for pest or weed control at 500 g/ha: application rate 500 g/Ha
Protocol: as §1, §2

SMILES | pest or weed control at 1000 g/ha (Eleusine indica (ELEIN)) | pest or weed control at 1000 g/ha (Lolium perenne (LOLPE)) | pest or weed control at 1000 g/ha [1] | pest or weed control at 1000 g/ha [2] | pest or weed control at 1000 g/ha [3] | pest or weed control at 1000 g/ha (Setaria faberi (SETFA)) | pest or weed control at 1000 g/ha [4] | pest or weed control at 1000 g/ha [5] | pest or weed control at 1000 g/ha [6] | pest or weed control at 500 g/ha (Eleusine indica (ELEIN)) | pest or weed control at 500 g/ha (Lolium perenne (LOLPE)) | pest or weed control at 500 g/ha [1] | pest or weed control at 500 g/ha [2] | pest or weed control at 500 g/ha [3] | pest or weed control at 500 g/ha (Setaria faberi (SETFA)) | pest or weed control at 500 g/ha [4] | pest or weed control at 500 g/ha [5] | pest or weed control at 500 g/ha [6]
O=C([O-])C[n+]1ccc2ccccc2n1 [Compound A2, 2-cinnolin-2-ium-2-ylacetate] | 100% | 20% | 40% | 90% | 100% | 80% | 100% | 80% | 100% | – | – | – | – | – | – | – | – | –
COC(=O)C[n+]1cc(C)c2cc(C)cc(C)c2n1 [Compound A3] | 0% | 20% | 10% | 20% | 20% | 10% | 0% | 10% | 0% | – | – | – | – | – | – | – | – | –
Cc1cc(C)c2n[n+](CC(=O)[O-])cc(C)c2c1 [Compound A4] | 20% | 10% | 30% | 40% | 40% | 0% | 10% | 10% | 10% | – | – | – | – | – | – | – | – | –
CONC(=O)C[n+]1cc(C)c2cc(C)cc(C)c2n1 [Compound A5] | 10% | 0% | 20% | 30% | 30% | 10% | 0% | 20% | 10% | – | – | – | – | – | – | – | – | –
Cc1cc(C)c2n[n+](CC(=O)OC(C)C)cc(C)c2c1 [Compound A6, isopropyl 2-(4,6,8-trimethylcinnolin-2-ium-2-yl)acetate chloride] | 30% | 10% | 10% | 30% | 40% | 10% | 10% | 20% | 10% | – | – | – | – | – | – | – | – | –
COC(=O)C[n+]1cc(C)c2cccc(C)c2n1 [Compound A7] | 20% | 20% | 10% | 20% | 30% | 10% | 10% | 30% | 0% | – | – | – | – | – | – | – | – | –
Cc1c[n+](CC(=O)[O-])nc2c(C)cccc12 [Compound A8] | 50% | 10% | 30% | 40% | 50% | 10% | 20% | 60% | 30% | – | – | – | – | – | – | – | – | –
COC(=O)C[n+]1cc(C)c2cc(C)ccc2n1 [Compound A9] | 70% | 10% | 20% | 50% | 10% | 10% | 10% | 60% | 40% | – | – | – | – | – | – | – | – | –
Cc1ccc2n[n+](CC(=O)[O-])cc(C)c2c1 [Compound A10] | 70% | 10% | 40% | 40% | 30% | 40% | 40% | 30% | 50% | – | – | – | – | – | – | – | – | –
Cc1c[n+](CCS(=O)(=O)[O-])nc2ccccc12 [Compound A11] | 80% | 0% | 80% | 80% | 100% | 70% | 60% | 100% | 40% | – | – | – | – | – | – | – | – | –
N[C@H](CC[n+]1ccc2ccccc2n1)C(=O)O [Compound A12, [(1R)-1-carboxy-3-cinnolin-2-ium-2-yl-propyl]ammonium 2,2,2-trifluoroacetate] | 90% | 40% | 60% | 50% | 80% | 50% | 40% | 70% | 80% | – | – | – | – | – | – | – | – | –
CNC(=O)c1c[n+](CCS(=O)(=O)[O-])nc2ccccc12 [Compound A13] | – | – | – | – | – | – | – | – | – | 30% | 20% | 20% | 20% | 40% | 60% | 50% | 50% | 50%
CNC(=O)c1c[n+](CCC(=O)O)nc2ccccc12 [Compound A14] | – | – | – | – | – | – | – | – | – | 100% | 30% | 50% | 60% | 100% | 80% | 70% | 90% | 80%
CS(=O)(=O)NC(=O)C[n+]1ccc2ccccc2n1 [Compound A15, 2-cinnolin-2-ium-2-yl-N-methylsulfonyl-acetamide bromide] | 80% | 60% | 80% | 90% | 90% | 60% | 40% | 80% | 70% | – | – | – | – | – | – | – | – | –
